One may read the half-life as the time in which the quantity being followed falls by half. The low end stands for fast loss, the high end for slow loss. A word on the IC50: it is the concentration that gives 50% inhibition. Read a high IC50 as weaker potency in that assay. For orientation: inhibition means the share of the control response that was lost under treatment. Low values mean a weak effect, high ones a strong effect.

Some results are limits rather than exact numbers.

The values that follow come from patent US11274074B2, “Pharmaceutical composition for ANO1 antagonist with anticancer activity” (INDUSTRY-ACADEMIC COOPERATION FOUNDATION, YONSEI UNIVERSITY, priority 2018, dated 2022).

Data set [1] is described as follows: Stability in mouse plasma (LC-MS/MS). It is filed as in vitro ADME. As to conditions: for half-life at 5 μM: mouse, 37° C.
The target of a further data set is ANO1 (Homo sapiens (Human), UniProt Q5XXA6). Put plainly: Selective inhibition of ANO1 over ANO2 (Table 1), ANO1 IC50. It is filed as cell-based.
Data set [2] addresses T1, ANO2 (Homo sapiens (Human), UniProt Q9NQ90). Put plainly: Selective inhibition of ANO1 over ANO2 (Table 1), ANO2 IC50. The class given is cell-based.
The next data set has as its system MCF7 breast cancer cells. Put plainly: MTS cell viability, MCF7 breast cancer cells highly expressing ANO1. The class given is cell-based. The conditions noted are these: MTS assay, 24 hours. How it is done:
(§1) The cell viability was determined by the MTS assay (mean±S.E., n=4).
(§2) 24 hours later, after adding 20 μL of an MTS solution to each well and culturing at 37° C. for 30 minutes under 5% CO2, absorbance was measured at 490 nm using a microplate reader.
(Tetrazolium dyes change colour on reduction, which living cells bring about.)

The test system of data set [3] is PC-3 cells highly expressing ANO1. The data set can be described thus: MTS cell viability, PC-3 cells highly expressing ANO1. The conditions noted are these: MTS assay, 24 hours. The class given is cell-based. The procedure:
(§3) The cell viability was determined by the MTS assay (mean±S.E., n=4; * P<0.05, ** P<0.01, *** P<0.001).
as §2
(§4) In FIG. 2B, PC-3 cells were treated with the [Chemical Formula 5] compound at different concentrations in the same manner as in FIG. 2A. […] After adding 20 μL of an MTS solution to each well and culturing at 37° C. for 30 minutes under 5% CO2, absorbance was measured at 490 nm using a microplate reader.

For data set [4], the system named is BxPC3 pancreatic cancer cells. Put plainly: MTS cell viability, BxPC3 pancreatic cancer cells highly expressing ANO1. As to conditions: MTS assay, 24 hours. It is filed as cell-based. How it is done: as §1, §2
For data set [5], the system named is PC-3 cells not expressing ANO1. Put plainly: MTS cell viability, PC-3 cells not expressing ANO1. It is filed as cell-based. As to conditions: MTS assay, 24 hours. The procedure:
as §3, §2, §4

Data set [6] concerns smooth muscle of the mouse ileum. The data set can be described thus: Contraction of smooth muscle using mouse ileal section.
In the next data set the target is human WT-CFTR (Homo sapiens (Human), UniProt P13569). The data set can be described thus: Short-circuit current in FRT cells expressing CFTR. It is filed as cell-based.
The test system of data set [7] is ANO1 protein in PC-3 cells. The data set can be described thus: Western blot of ANO1 protein level in PC-3 cells expressing ANO1 at high level. It is filed as cell-based. As to conditions: for decrease of the expression level of ANO1: PC-3 cells.
Data set [8] deals with T1, ANO2. The data set can be described thus: Short-circuit current in FRT cells expressing ANO2. It is filed as cell-based.
Another data set concerns the target ANO1 (TMEM16A) (Homo sapiens (Human), UniProt Q5XXA6). Put plainly: Short-circuit current (apical membrane current) in FRT cells expressing ANO1. The class given is cell-based. How it is done: Specifically, Fischer rat thyroid (FRT) cells expressing ANO1 were differentiated by culturing in DMEM/Ham's F12 medium in Transwell for 5 days and then short-circuit current was measured using an Ussing chamber. Then, a regular HCO^3− solution (120 mM NaCl, 5 mM KCl, 1 mM MgCl2, 2.5 mM HEPES, 1 mM CaCl2, 10 mM glucose, 25 mM NaHCO3) was added to a basolateral bath of the Ussing chamber, and a luminal bath was stabilized for 20 minutes by creating a Cl^− gradient by maintaining at 70 mM Cl^−. Then, after treating with the [Chemical Formula 5] compound at different concentrations (0, 0.003, 0.01, 0.03, 0.1, 0.3, 1.0 μM) and carrying out reaction for 20 minutes, ATP (100 μM) was added and the inhibitory effect for Cl^− secretion was measured through ANO1 activity.

T1 sequence (Q9NQ90 other isoform, or with tags, fused parts or gaps, species assumed): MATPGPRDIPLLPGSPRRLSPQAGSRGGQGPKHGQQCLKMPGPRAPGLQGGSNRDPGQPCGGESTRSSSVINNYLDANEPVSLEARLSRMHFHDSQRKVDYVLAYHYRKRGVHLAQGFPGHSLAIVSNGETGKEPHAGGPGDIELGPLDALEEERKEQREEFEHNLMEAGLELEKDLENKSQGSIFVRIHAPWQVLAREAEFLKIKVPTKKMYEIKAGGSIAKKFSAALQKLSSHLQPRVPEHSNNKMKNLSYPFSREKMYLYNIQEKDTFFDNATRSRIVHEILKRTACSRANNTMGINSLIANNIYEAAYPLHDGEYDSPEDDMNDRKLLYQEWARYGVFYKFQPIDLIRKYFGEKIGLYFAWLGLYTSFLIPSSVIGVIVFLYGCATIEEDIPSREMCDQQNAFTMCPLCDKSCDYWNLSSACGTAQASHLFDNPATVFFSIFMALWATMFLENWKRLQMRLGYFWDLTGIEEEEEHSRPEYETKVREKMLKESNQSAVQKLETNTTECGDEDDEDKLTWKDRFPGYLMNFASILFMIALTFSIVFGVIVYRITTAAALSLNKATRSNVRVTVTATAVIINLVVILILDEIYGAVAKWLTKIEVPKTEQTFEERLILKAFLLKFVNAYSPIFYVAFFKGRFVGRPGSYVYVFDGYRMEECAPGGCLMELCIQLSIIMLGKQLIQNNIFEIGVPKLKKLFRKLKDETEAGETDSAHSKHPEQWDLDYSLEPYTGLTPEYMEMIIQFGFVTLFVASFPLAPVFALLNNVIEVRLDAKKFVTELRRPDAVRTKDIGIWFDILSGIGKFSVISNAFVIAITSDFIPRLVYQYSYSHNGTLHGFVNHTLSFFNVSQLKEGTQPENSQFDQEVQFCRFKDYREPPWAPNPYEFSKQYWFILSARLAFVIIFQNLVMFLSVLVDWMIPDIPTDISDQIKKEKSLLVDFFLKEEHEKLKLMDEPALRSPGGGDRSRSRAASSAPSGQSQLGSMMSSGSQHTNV
Chain of ANO1 (Q5XXA6 whole entry, species assumed): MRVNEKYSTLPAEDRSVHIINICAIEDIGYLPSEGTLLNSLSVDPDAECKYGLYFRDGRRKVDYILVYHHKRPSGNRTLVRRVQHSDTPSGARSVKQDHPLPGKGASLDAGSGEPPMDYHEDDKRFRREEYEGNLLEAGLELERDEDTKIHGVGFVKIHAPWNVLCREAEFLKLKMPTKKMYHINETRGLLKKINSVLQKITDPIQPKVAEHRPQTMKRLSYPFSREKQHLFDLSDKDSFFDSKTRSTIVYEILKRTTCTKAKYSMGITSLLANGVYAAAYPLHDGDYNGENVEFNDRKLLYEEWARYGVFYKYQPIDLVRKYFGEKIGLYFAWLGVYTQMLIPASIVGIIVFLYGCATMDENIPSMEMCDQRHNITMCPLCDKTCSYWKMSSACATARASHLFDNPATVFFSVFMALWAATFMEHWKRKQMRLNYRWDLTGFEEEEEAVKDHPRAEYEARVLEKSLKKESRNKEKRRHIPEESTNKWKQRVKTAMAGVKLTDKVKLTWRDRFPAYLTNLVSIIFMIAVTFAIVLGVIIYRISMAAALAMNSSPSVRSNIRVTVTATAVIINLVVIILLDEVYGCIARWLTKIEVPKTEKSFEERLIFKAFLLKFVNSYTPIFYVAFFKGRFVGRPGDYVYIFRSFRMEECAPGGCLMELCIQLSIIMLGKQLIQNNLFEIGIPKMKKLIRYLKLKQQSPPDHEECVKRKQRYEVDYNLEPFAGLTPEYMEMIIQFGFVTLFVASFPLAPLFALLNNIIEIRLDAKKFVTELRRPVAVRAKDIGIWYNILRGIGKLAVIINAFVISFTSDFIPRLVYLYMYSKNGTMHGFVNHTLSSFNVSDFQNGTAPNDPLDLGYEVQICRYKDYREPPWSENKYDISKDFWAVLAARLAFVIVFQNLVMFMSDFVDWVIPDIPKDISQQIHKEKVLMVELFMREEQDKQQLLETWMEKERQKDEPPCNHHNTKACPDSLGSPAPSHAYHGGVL
Chain of ANO1 (TMEM16A) (Q5XXA6 whole entry, species assumed): as above
Chain of human WT-CFTR (P13569 whole entry): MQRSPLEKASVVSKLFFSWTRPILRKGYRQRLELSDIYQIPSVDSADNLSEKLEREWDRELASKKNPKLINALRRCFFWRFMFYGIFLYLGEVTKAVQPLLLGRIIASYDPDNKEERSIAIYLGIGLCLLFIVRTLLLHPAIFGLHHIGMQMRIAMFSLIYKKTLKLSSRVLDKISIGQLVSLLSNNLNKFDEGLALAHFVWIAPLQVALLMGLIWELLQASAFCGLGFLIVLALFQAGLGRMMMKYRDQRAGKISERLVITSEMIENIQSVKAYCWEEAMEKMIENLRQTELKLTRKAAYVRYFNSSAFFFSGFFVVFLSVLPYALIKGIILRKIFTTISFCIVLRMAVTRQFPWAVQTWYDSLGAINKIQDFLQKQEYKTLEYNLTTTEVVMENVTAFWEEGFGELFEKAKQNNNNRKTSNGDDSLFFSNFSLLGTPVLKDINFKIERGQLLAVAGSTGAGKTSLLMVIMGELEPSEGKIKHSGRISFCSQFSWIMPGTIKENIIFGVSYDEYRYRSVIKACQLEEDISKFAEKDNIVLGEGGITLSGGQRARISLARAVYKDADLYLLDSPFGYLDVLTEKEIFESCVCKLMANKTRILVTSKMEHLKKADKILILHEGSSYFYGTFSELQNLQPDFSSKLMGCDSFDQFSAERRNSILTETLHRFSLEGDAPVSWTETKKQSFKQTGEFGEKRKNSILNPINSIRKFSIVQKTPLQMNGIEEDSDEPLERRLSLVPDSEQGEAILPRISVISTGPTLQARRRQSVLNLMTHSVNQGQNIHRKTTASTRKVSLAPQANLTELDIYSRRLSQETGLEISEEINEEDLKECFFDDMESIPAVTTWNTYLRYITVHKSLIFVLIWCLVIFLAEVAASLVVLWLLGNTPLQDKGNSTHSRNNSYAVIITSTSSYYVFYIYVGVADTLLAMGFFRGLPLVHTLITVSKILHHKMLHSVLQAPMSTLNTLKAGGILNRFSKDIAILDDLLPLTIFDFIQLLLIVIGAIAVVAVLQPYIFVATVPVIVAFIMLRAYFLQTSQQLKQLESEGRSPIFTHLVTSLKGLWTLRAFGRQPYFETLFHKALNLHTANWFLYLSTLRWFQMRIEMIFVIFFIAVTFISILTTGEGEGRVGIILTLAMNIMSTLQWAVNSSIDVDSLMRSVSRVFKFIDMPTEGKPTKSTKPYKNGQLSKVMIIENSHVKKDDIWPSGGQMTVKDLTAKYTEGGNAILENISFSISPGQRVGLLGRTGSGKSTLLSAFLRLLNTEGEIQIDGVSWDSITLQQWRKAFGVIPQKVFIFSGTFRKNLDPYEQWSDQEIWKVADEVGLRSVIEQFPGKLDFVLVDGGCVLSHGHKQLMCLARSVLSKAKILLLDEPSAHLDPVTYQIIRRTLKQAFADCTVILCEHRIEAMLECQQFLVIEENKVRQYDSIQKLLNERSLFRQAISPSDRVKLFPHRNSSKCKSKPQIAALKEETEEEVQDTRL

As to `COc1ccccc1/C=N/NC(=O)COc1ccc(Cl)cc1C` [Ani9, reference compound], in data set [1], the plasma stability result is on record as “low” and the half-life at 5 μM amounted to 0.533 h.

On to `COc1ccccc1/C=N/NC(=O)c1cc2cc(Cl)ccc2o1` [Comparative Example 1], for which the IC50 at ANO1 and on ANO2 [2] was more than 100 µM throughout.

Turning to `COc1ccccc1-c1nnc(-c2cc3cc(Cl)ccc3o2)o1` [Comparative Example 2], the half-inhibitory concentration (IC50) against ANO1 and against ANO2 [2] was more than 100 µM in each case.

The molecule `COc1cccc(/C=N/NC(=O)COc2ccc(Cl)cc2C)c1` [Comparative Example 3] gave an IC50 against ANO1 of more than 100 µM.

For the molecule `COc1cccc(-c2nnc(COc3ccc(Cl)cc3C)o2)c1` [Comparative Example 4], the IC50 against ANO1 and at ANO2 [2] was more than 100 µM in each case.

On ANO1, `Cc1cc(Cl)ccc1OCC(=O)N/N=C/c1cccc(F)c1` [Comparative Example 5] returned an IC50 of more than 100 µM.

`Cc1cc(Cl)ccc1OCc1nnc(-c2cccc(F)c2)o1` [Comparative Example 6]: the IC50 against ANO1 and on ANO2 [2] was more than 100 µM throughout.

As for `Cc1cc(Cl)ccc1OCc1nnc(-c2ccccc2C(F)(F)F)o1` [Comparative Example 7], the IC50 on ANO1 and against ANO2 [2] was more than 100 µM each time.

On ANO1, `Cc1cc(Cl)ccc1OCc1nnc(-c2ccccc2OC(F)(F)F)o1` [Comparative Example 8] gave an IC50 of more than 100 µM.

In the case of `Cc1cc(Cl)ccc1OCC(=O)N/N=C/c1cccc(OC(F)(F)F)c1` [Comparative Example 9], in the data set on MCF7 breast cancer cells, the “effect on cell viability of MCF7 breast cancer cells highly expressing ANO1” value is given as “insignificant effect”. Further, at ANO1, the “ANO1 inhibitory activity (in words)” value is recorded as “not to inhibit ANO1” and the half-maximal inhibitory concentration (IC50) is more than 100 µM. In addition, the “effect on cell viability of PC-3 cells highly expressing ANO1” value in data set [3] was “insignificant effect”. In addition, in [4], the “effect on cell viability of BxPC3 pancreatic cancer cells highly expressing ANO1” value is reported as “insignificant effect”. Besides, the “effect on cell viability of PC3 cells not expressing ANO1” value in data set [5] is “insignificant effect”.

On ANO1, `Cc1cc(Cl)ccc1OCc1nnc(-c2cccc(OC(F)(F)F)c2)o1` [Comparative Example 10] yielded an IC50 of more than 100 µM.

`Cc1cc(Cl)ccc1OCc1nnc(-c2ccccn2)o1` [Comparative Example 11] showed an IC50 against ANO1 of more than 100 µM.

Turning to `CCOC(=O)c1cc2ccccn2c1/C=N/NC(=O)COc1ccc(Cl)cc1C` [Comparative Example 12], the IC50 on ANO1 and against ANO2 [2] was more than 100 µM throughout.

Molecule `Cc1cc(Cl)ccc1OCC(=O)N/N=C1/C(=O)N(C)c2ccccc21` [Comparative Example 13] had an IC50 on ANO1 of more than 100 µM.

In the case of `Cc1cc(Cl)ccc1OCC(=O)N/N=C1\CCOc2ccccc21` [Comparative Example 14], on ANO1, the IC50 was more than 100 µM.

For `Cc1cc(Cl)ccc1OCC(=O)Nc1nc2ccccc2s1` [Comparative Example 15], the IC50 at ANO1 and against ANO2 [2] was more than 100 µM throughout.

Molecule `COC(=O)c1sc(NC(=O)COc2ccc(Cl)cc2C)nc1C` [Comparative Example 16] yielded an IC50 on ANO1 of more than 100 µM.

The molecule `Cc1cc(Cl)ccc1OC(C)C(=O)N/N=C/c1ccccc1OC(F)(F)F` (stereo not shown) [Comparative Example 17] had an IC50 on ANO1 of more than 100 µM.

`Cc1cc(Cl)ccc1OC(C)(C)C(=O)N/N=C/c1ccccc1OC(F)(F)F` [Comparative Example 18] had an IC50 against ANO2 [2] of more than 100 µM.

On to `Cc1cc(Cl)ccc1OC(F)(F)C(=O)N/N=C/c1ccccc1OC(F)(F)F` [Comparative Example 19], for which the IC50 against ANO1 and at ANO2 [2] was more than 100 µM throughout.

Regarding `Cc1cc(Cl)ccc1OCC(=O)N/N=C/c1ccccc1OC(F)(F)F` [Example 1], the “effect on cell viability of MCF7 breast cancer cells highly expressing ANO1” value with MCF7 breast cancer cells is recorded as “selectively inhibited the growth”. For the same molecule, in [6], the “contraction frequency of smooth muscle” value is “no effect” and the “contraction of smooth muscle of the mouse ileum” value is recorded as “strongly inhibited”. Further, the “decrease of maximum contraction intensity of smooth muscle” value in data set [6] (300 nM) is recorded as 53.3%. In data set [6] (1 μM), the “decrease of maximum contraction intensity of smooth muscle” value was 68.8%. Besides, the “inhibition of the activity of CFTR” value against human WT-CFTR (100 μM, forskolin-activated CFTR) was “did not inhibit”. For the same molecule, on ANO1, the “ANO1 inhibitory activity (in words)” value was “strongest ANO1 inhibitory activity” and the IC50 was determined as 0.021 ± 0.005 µM. In data set [3], the “effect on cell viability of PC-3 cells highly expressing ANO1” value is reported as “selectively inhibited the growth of the PC-3 cells highly expressing ANO1 in a concentration-dependent manner”. Also, the “effect on cell viability of BxPC3 pancreatic cancer cells highly expressing ANO1” value in [4] is “selectively inhibited the growth”. Also, in data set [7] (3 μM), the “reduction of ANO1 expression level as compared to Ani9” value (from here on “reduction of ANO1 expression level”) is “about 11.5 times” and the “decrease of the expression level of ANO1” value was found to be 59.8±4.6%. Also, in data set [7] (10 μM), the “reduction of ANO1 expression level” value is on record as approximately 2.28 times and the “decrease of the expression level of ANO1” value was found to be 66.5±4.7%. In addition, the inhibition at 100 µM on ANO2 [8] was 17.1%. In addition, in data set [1], the plasma stability entry is “higher stability in the mouse plasma than Ani9” and the half-life at 5 μM was 1.73 h. In addition, on ANO1 (TMEM16A), the “inhibition of ANO1 activity as compared to Ani9” value is not below 4 times. In addition, the IC50 at ANO1 (TMEM16A) (FRT cells expressing ANO1, short-circuit current, ATP 100 μM) amounted to 0.022 µM.

For the molecule `COc1ccccc1CNNC(=O)COc1ccc(Cl)cc1C` [Example 2], the IC50 on ANO1 is 10.7 ± 0.14 µM; against ANO2 [2], more than 100 µM.

`COc1ccccc1-c1nnc(COc2ccc(Cl)cc2C)o1` [Example 3]: the IC50 against ANO1 is 19.4 ± 0.01 µM; at ANO2 [2], 12.4 ± 0.05 µM.

Turning to `Cc1cc(Cl)ccc1OCc1nnc(-c2ccccc2F)o1` [Example 4], the IC50 against ANO1 was 21.2 ± 0.17 µM; on ANO2 [2], more than 100 µM.

As to `Cc1cc(Cl)ccc1OCC(=O)N/N=C/c1ccccc1C(F)(F)F` [Example 5], 0.21 ± 0.04 µM corresponded to half-maximal inhibition on ANO1 (IC50).

With `C/C(=N\NC(=O)COc1ccc(Cl)cc1C)c1ccccc1OC(F)(F)F` [Example 6], on ANO1, the “ANO1 inhibitory activity (in words)” value was “slightly weaker inhibitory activity than the compound of Example 1” and half-maximal inhibition (IC50) was put at 0.3 ± 0.02 µM. In addition, at ANO2 [2], the IC50 is more than 100 µM. Besides, in data set [7] (10 μM), the “reduction of ANO1 expression level” value is listed as “about 1.21 times” and the “decrease of the expression level of ANO1” value worked out at 28.9±0.9%.

As to `CCOC(=O)C(F)Oc1ccccc1/C=N/NC(=O)COc1ccc(Cl)cc1C` (stereo not shown) [Example 7], the values for the IC50 on ANO1 and against ANO2 [2] were 15.7 ± 0.01 µM and 59.4 ± 0.45 µM, respectively.

On ANO1, `Cc1cc(Cl)ccc1OCC(=O)N/N=C/c1ccco1` [Example 8] registered an IC50 of 25.7 ± 0.01 µM.

On to `Cc1cc(Cl)ccc1OCc1nnc(-c2ccco2)o1` [Example 9], for which the half-inhibitory concentration (IC50) against ANO1 was 63.8 ± 0.02 µM; against ANO2 [2] it was more than 100 µM.

Take `Cc1cc(Cl)ccc1OCC(=O)N/N=C/c1ccccn1` [Example 10]: the IC50 was 31.3 ± 0.57 µM on ANO1 and more than 100 µM at ANO2 [2].

Turning to `COc1ccccc1CNC(=O)COc1ccc(Cl)cc1C` [Example 11], the IC50 at ANO1 was 20.6 ± 0.02 µM; on ANO2 [2], 13.1 ± 0.07 µM.

With `COc1cccc(CNC(=O)COc2ccc(Cl)cc2C)c1` [Example 12], the IC50 against ANO1 was 53.7 ± 0.05 µM; at ANO2 [2], more than 100 µM.

Regarding `Cc1cc(Cl)ccc1OCC(=O)Nc1nc2cc(Cl)ccc2o1` [Example 13], the IC50 against ANO1 is 14.2 ± 0.07 µM. Also, in data set [7] (10 μM), the “reduction of ANO1 expression level” value is reported as approximately 2.05 times and the “decrease of the expression level of ANO1” value is listed as 48.8±2.9%.

Take `CCOC(=O)c1csc(NC(=O)COc2ccc(Cl)cc2C)n1` [Example 14]: the IC50 at ANO1 was 14.8 ± 0.01 µM; on ANO2 [2], more than 100 µM.

CFTRinh-172 [reference compound]: at human WT-CFTR (10 μM), the “inhibition of CFTR” value was “completely inhibited”.
